In article PMC4876372 (Scientific Reports, 2016):
Like-named read-outs stand apart in the source and are kept apart here.

Key:
[1] = target: T1, His-tagged human recombinant DCTPP1 protein (Homo sapiens, UniProt Q9H773); test: DCTPP1 enzyme assay; assay type: biochemical; conditions: at 100 μM
T1 construct: His; purchased ATGen
T1 sequence (Q9H773 1-170): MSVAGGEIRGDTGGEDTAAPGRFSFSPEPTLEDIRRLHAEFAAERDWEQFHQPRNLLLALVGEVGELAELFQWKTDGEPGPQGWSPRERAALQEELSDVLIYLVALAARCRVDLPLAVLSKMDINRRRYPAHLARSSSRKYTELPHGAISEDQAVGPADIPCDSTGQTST
Procedure: Likewise, the enzymatic activities of ITPA and DCTPP1 were measured using a PPiLight Inorganic Pyrophosphate Assay kit. For the ITPA enzyme assay, we used ITPA assay buffer (100 mM Tris-acetate, 50 mM Mg(OAc)2, 0.005% Tween-20, and 2 mM DTT, pH 7.5), His-tagged human recombinant ITPA protein (5 nM; ProSpec), and ITP (25 μM). For the DCTPP1 enzyme assay, we used DCTPP1 assay buffer (100 mM Tris-acetate, 100 mM NaCl, 10 mM Mg(OAc)2, 0.005% Tween-20, and 2 mM DTT, pH 7.5), His-tagged human recombinant DCTPP1 protein (50 nM; ATGen), and deoxycytidine triphosphate (dCTP; 50 μM).
To exclude false positive compounds that inhibit PPi detection, the effects of test compounds on 10 μM Na4P2O7-induced luciferase activity were examined.

HeLa cells [2] = test: Cell death assay (WST-8) in HeLa cells; assay type: cell-based, human
Procedure: (§1) Human cancer cell lines HeLa (cervical cancer), MIA PaCa-2 (pancreatic cancer), A431 (epidermoid carcinoma), and human embryonic kidney derived cell line HEK293T were cultured in Dulbecco’s Modified Eagle’s Medium (DMEM; Invitrogen) containing 10% fetal bovine serum (FBS), penicillin G (50 units/mL) and streptomycin (50 µg/mL). Human cancer cell lines Panc-1 (pancreatic cancer) and Jurkat (T cell lymphoma) were cultured in RPMI (Gibco) containing 10% FBS, penicillin G (50 units/mL) and streptomycin (50 µg/mL). Human osteosarcoma cell line MG-63, mouse embryonic fibroblast NIH3T3 cells and its transformant NIH3T3/KRAS cells1 were cultured in DMEM (Sigma-Aldrich) containing 10% calf serum, glutamine (0.3 g/L), penicillin G (50 units/mL), and streptomycin (50 µg/mL). All cell lines were incubated at 37 °C in a humidified atmosphere containing 5% CO2.
(§2) The cells were seeded in 96-well plates, cultured overnight, and treated with test compounds for the indicated time. Subsequently, cell viability was measured by the WST-8 assay, using Cell Count Reagent SF (Nacalai Tesque) according to the manufacturer ’s instructions, with the measurement of absorbance set at 450 nm on the ARVO SX 1420 Multilabel Counter (Wallac). […]

[3] = target: T2, His-tagged human recombinant MTH1 protein (Homo sapiens, UniProt P36639); test: MTH1 enzyme assay (PPiLight pyrophosphate detection); assay type: biochemical; conditions: MTH1 2 nM
T2 construct: His; purchased ProSpec
Procedure: An MTH1 enzyme assay was performed as described previously with minor modifications. Briefly, test compounds were dissolved in an assay buffer [100 mM Tris-acetate, 40 mM NaCl, 10 mM Mg(OAc)2, 0.005% Tween-20, and 2 mM dithiothreitol (DTT), pH 7.5] containing His-tagged human recombinant MTH1 protein (2 nM; ProSpec). […] Relative MTH1 activity was measured by monitoring the pyrophosphate (PPi) generated through MTH1-catalyzed nucleotide triphosphate hydrolysis. The luciferase-mediated luminescence signal was recorded for 30 min using a luminometer (Molecular Devices).

[4] = Cell death assay (WST-8) in HeLa cells; assay type: cell-based, human; conditions: human, HeLa cells (cervical cancer); 72 h, WST-8; read-out: cytotoxicity IC50 against HeLa cells
Procedure: as §1, §2

[5] = tested on: nuclear 53BP1 foci in HeLa cells; test: 53BP1 foci immunofluorescence (DNA damage); assay type: cell-based, human; conditions: 24 h, only at the higher concentrations (100-300 μM)
Procedure: For 53BP1, test compound–treated HeLa cells were fixed in 3% formalin in PBS containing 0.1% Triton X-100 for 15 min and permeabilized in 0.5% Triton X-100 for 5 min. After blocking with 10% FBS and 0.1% Triton X-100 in PBS for 1 h, cells were incubated sequentially with a primary antibody against 53BP1 (1:600, sc-22760; Santa Cruz Biotechnology) in blocking solution at 37 °C for 1 h and with Alexa Fluor 568-conjugated secondary antibody (1:400, Life Technologies) under the same condition.
After a quick rinse in PBS, DNA was counterstained with 0.5 µg/mL Hoechst 33342 (Sigma-Aldrich) in PBS at room temperature for 10 min. Images were analyzed on a fluorescence microscope (Delta Vision). […]

porcine tubulin = target: T3, porcine tubulin (Sus scrofa, UniProt P02550+P02554); test: In vitro tubulin polymerization assay; assay type: biochemical; conditions: dose-dependent
T3 construct: purchased Cytoskeleton
T3 sequence (P02550 whole entry): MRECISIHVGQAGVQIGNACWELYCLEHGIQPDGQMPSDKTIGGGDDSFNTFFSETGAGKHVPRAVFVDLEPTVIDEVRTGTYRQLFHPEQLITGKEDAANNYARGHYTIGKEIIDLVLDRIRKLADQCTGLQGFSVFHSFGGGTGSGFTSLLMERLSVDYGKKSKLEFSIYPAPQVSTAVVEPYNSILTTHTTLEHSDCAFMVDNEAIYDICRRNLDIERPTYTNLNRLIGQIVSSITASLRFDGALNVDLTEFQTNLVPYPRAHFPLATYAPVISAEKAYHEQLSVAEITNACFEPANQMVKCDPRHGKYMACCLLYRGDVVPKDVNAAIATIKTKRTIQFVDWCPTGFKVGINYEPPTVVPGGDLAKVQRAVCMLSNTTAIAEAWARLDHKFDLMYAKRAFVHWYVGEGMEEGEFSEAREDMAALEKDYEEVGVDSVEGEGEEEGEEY
T3 sequence (P02554 whole entry): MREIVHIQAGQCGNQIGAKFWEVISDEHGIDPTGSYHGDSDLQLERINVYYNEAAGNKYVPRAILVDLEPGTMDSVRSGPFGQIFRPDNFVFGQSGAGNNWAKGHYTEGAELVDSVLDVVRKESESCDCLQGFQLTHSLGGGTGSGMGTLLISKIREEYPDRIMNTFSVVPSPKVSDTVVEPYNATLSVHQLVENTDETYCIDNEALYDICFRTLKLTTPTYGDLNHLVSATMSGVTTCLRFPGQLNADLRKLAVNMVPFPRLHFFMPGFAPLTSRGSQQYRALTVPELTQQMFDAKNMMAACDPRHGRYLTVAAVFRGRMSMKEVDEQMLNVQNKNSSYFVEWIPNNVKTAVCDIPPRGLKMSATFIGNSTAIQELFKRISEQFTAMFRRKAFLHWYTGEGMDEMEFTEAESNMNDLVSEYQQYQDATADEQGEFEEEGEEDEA
Procedure: In vitro tubulin polymerization assay was performed using a tubulin polymerization assay kit (Cytoskeleton) according to the manufacturer’s instructions. Briefly, lyophilized porcine tubulin was solubilized to a final concentration of 2 mg/mL in reaction buffer containing 80 mM piperazine-N,N′-bis(2-ethanesulfonic acid) (PIPES; pH 6.9), 2 mM MgCl2, 0.5 mM ethylene glycol tetraacetic acid (EGTA), 1 mM guanosine-5′-triphosphate (GTP), 10 μM fluorescent reporter, and 20% glycerol, and kept at 4 °C. Compounds (100 × DMSO stock solutions) were added to prewarmed half-area 96-well black plates. Cold tubulin solution was added to the wells. The plate contents were mixed by shaking, and fluorescence (Ex 350 nm, Em 435 nm) was read every minute for 1 h using a fluorescence microplate reader (Molecular Devices).

[6] = tested on: 8-oxo-dG levels in DNA of HeLa cells; test: 8-oxo-dG immunofluorescence; assay type: cell-based, human; conditions: 20 h, NPD compounds 100 μM, TH287 3 and 10 μM
Procedure: as §1, with “CO2. […]” for “CO2.”
The HeLa cells were seeded on glass coverslips in 12-well plates, cultured overnight, and treated with test compounds for the indicated time. For 8-oxo-dG, cells were fixed sequentially in 3.7% formalin for 10 min and methanol at -20 °C for 10 min, and then permeabilized in 0.5% Triton X-100 in PBS at room temperature for 5 min. After blocking with 0.5% BSA in PBS at room temperature for 30 min, cells were incubated sequentially with a primary antibody against 8-oxo-dG (5 µg/mL, MOG-020; Japan Institute for the Control of Aging) and with Alexa Fluor 488-conjugated secondary antibody (1:400, Life Technologies) under the same conditions. After a quick rinse in PBS, DNA was counterstained with 0.1 µg/mL 4′,6-diamidino-2-phenylindole (DAPI) in PBS at room temperature for 10 min. Images were analyzed with a fluorescence microscope (BX60, Olympus).

HeLa cells [7] = test: Cell cycle analysis (propidium iodide flow cytometry); assay type: cell-based, human; conditions: 24 h
Procedure: The HeLa cells were seeded in 12-well plates and treated with test compounds for the indicated time. Cells were harvested, washed with PBS, and incubated in propidium iodide (PI) solution containing 50 µg/mL propidium iodide, 0.1% sodium citrate, 0.2% Nonidet P-40, and 0.25 µg/mL RNase A (Nacalai Tesque) for 30 mi n in the dark.
Cellular DNA content was analyzed by fluorescence-activated cell sorting using a Cytomics FC500 (Beckman Coulter). […]

[8] = tested on: Bcl-2 phosphorylation in HeLa cells; test: Detection of phosphorylated Bcl-2 (western blot); assay type: cell-based, human; conditions: 24 h, at the effective concentrations
Procedure: Western blot analysis for detection of phosphorylated Bcl-2 was performed as described previously with several modifications. Briefly, HeLa cells were treated with test compounds for 24 h, then harvested and lysed by sonication in a radioimmunoprecipitation assay buffer (RIPA) buffer containing 25 mM 4-(2-hydroxyethyl)-1-piperazineethanesulfonic acid (HEPES; pH 7.8), 0.5 M NaCl, 5 mM ethylenediaminetetraacetic acid (EDTA), 1.5% Triton-X-100, 1.0% sodium deoxycholate, and 0.1% sodium dodecyl sulfate (SDS), supplemented with a protease inhibitor cocktail (Roche). Samples were subjected to SDS-PAGE and transferred to a PVDF membrane. The membrane was incubated with a primary antibody against Bcl-2 (1:500, #M0887; DAKO) and a horseradish peroxidase-labeled secondary antibody (1:2000, 170-6516; Bio-Rad) in sequence. Then, they were visualized with Fusion Solo S using the SuperSignal West Pico Chemiluminescence Substrate. Phosphorylated Bcl-2 was detected on the upper side of unphosphorylated Bcl-2 by the mobility shift. As a loading control, α-tubulin was detected in the same samples by using a primary antibody against α-tubulin (1:2000, T9026; Sigma-Aldrich).

[9] = tested on: intracellular microtubule networks in HeLa cells; test: alpha-tubulin immunofluorescence (interphase microtubules); assay type: cell-based, human; conditions: 6 h, at cytotoxic concentrations
Procedure: For α-tubulin, immunofluorescence was performed as described previously with several modifications2. Briefly, test compound–treated HeLa cells were fixed in 3.7% formalin for 1 min and methanol at -20 °C for 5 min sequentially, and permeabilized in 0.5% Triton X-100 in PBS for 5 min. After blocking with 0.5% BSA in PBS at room temperature for 30 min, cells were incubated sequentially with a primary antibody against α-tubulin (1:200, T9026; Sigma-Aldrich) in the blocking solution at 37 °C for 1 h, and with Alexa Fluor 488-conjugated secondary antibody (1:400, Life Technologies) at 37 °C for 40 min. After a quick rinse in PBS, DNA was counterstained with 0.5 µg/mL Hoechst 33342 in PBS at room temperature for 10 min. Images were analyzed using a fluorescence microscope (Delta Vision). […]
2 Futamura, Y. et al. Morphobase, an encyclopedic cell morphology database, and […]

[10] = tested on: other members of the Nudix protein family, nucleoside triphosphate pyrophosphatases; design: method as in PMID 24695224; conditions: cited from earlier work
[11] = tested on: 87 enzymes, GPCRs, kinases, ion channels, and transporters; design: method as in PMID 24695224; conditions: at 10 μM; with few exceptions; cited from earlier work
[12] = tested on: patient-derived malignant melanoma cells; design: method as in PMID 24695224; conditions: cited from earlier work
[13] = substrate 2-OH-dATP (8.3 μM), read-out: IC50 of MTH1 inhibitory activity, 2-OH-dATP
[14] = substrate 8-oxo-dGTP (13.2 μM), read-out: IC50 of MTH1 inhibitory activity, 8-oxo-dGTP

Row | Structure (SMILES) | effect on enzymatic activity of DCTPP1 [1] | IC50 [3, 13] | IC50 [3, 14] | effect on tubulin polymerization in vitro (porcine tubulin) | population of HeLa cells in G2/M phase (HeLa cells [7]) | Bcl-2 phosphorylation [8] | effect on intracellular microtubule networks [9] | inhibition of other Nudix family members and nucleoside triphosphate pyrophosphatases [10] | other results
1 | C[C@H](Oc1cc(-c2cnn(C3CCNCC3)c2)cnc1N)c1c(Cl)ccc(F)c1Cl [(S)-crizotinib, reference compound] | slightly inhibited |  |  |  |  |  |  |  | IC50 (HeLa cells [2]; 72 h, WST-8, read-out: cytotoxicity IC50 against HeLa cells): 13 µM
2 | Cn1cnc2c(NCc3ccco3)ncnc21 [NPD8880] |  | > 1000 µM | > 1000 µM |  |  |  |  |  | IC50 at 72 h [4]: 650 µM; DNA damage (nuclear 53BP1 foci formation) [5]: induced DNA damage
3 | CC(C)OCCCNc1ncnc2[nH]cnc12 [NPD15095] |  | 6.7 µM | 3.3 µM |  |  |  |  |  | 
4 | COc1ccc2nc3c(c(C)nn3C)c(NCCOCCO)c2c1 [SCH51344, reference compound] | slightly inhibited | 0.75 ± 0.4 µM | 0.32 ± 0.04 µM |  |  |  |  |  | IC50 (HeLa cells [2]): 5.5 µM
5 | CNc1cc(-c2cccc(Cl)c2Cl)nc(N)n1 [TH287, reference compound] |  | 0.0036 ± 0.0017 µM | 0.0022 ± 0.0003 µM | inhibited tubulin polymerization | increased the population of HeLa cells in G2/M phase | induced Bcl-2 phosphorylation | disrupted intracellular microtubule networks | did not inhibit | accumulation of 8-oxo-dG [6]: increased 8-oxo-dG levels
6 | Nc1nc(NC2CC2)cc(-c2cccc(Cl)c2Cl)n1 [TH588] |  |  |  | inhibited tubulin polymerization | increased the population of HeLa cells in G2/M phase | induced Bcl-2 phosphorylation | disrupted intracellular microtubule networks | did not inhibit | effect against 87 enzymes, GPCRs, kinases, ion channels, and transporters [11]: little effect; tumor growth in mouse xenograft model [12]: suppressed tumor growth
